From patent publication US4100346A, “Certain 7(o-amino-methyl- or methylaminomethylphenyl- or cyclohexadienyl- or thienylacetamide)-3[1-carboxymethyl-(or ethyl- or propyl-)-tetrazol-5-ylthiomethyl]-3-cephem-4-carboxylic acids” (Bristol-Myers Company, priority 1976, dated 1978)
≈ marks a conversion by molar mass, not a printed value. Like-named read-outs stand apart in the source and are kept apart here.

Key:
[1] = test system: Bacteroides Fragilis; experiment: Growth inhibitory activity, antibiotic dilution technique (obligate anaerobes); type: cell-based; conditions: 3 strains, geometric mean when applicable, read-out: Minimum inhibitory concentration
Experimental: (§1) Antibiotic spectrum. […] Procedures were as follows:
c. Obligate anaerobes. The assay was performed on solid medium, consisting of Brain Heart Infusion Broth (BBL) supplemented with 5% defibrinated sheep blood and 1% Ionagar (Colab). […] The plates were incubated at 37° C. for 48 hours under the oxygen-free conditions attained with a Gas-Pak (BBL) Brewer jar system.

[2] = test system: Clostridium sp.; experiment: microbe, parasite or virus in culture; type: cell-based; conditions: read-out: Minimum inhibitory concentration
Experimental: as §1
c. Obligate anaerobes. The assay was performed on solid medium, consisting of Brain Heart Infusion Broth (BBL) supplemented with 5% defibrinated sheep blood and 1% Ionagar (Colab).

[3] = test system: Staphylococcus Aureus; experiment: Effect of inoculum size on susceptibility of Staphylococcus aureus; type: cell-based; conditions: for MICB /MICA: MIC at 10^6 over MIC at 10^2 organisms
[4] = test system: Enterobacter cloacae; experiment: Intramuscular treatment of systemically infected mice; type: in vivo; conditions: Enterobacter cloacae, im, 3.5 h, read-out: PD50 /treatment
Description: (§2) Treatment of Systemically Infected Mice. The procedures were identical with those published previously [Leitner et al., BL-S640, a Cephalosporin With a Broad Spectrum of Antibacterial Activity: Bioavailability and Therapeutic Properties in Rodents, Antimicrob. Agents Chemother.
(a) the hog gastric mucin used in infections with Staphylococcus aureus No. 2 was purchased from American Laboratories, Inc., Omaha, Neb.

[5] = test system: Staphylococcus aureus; experiment: as above; type: in vivo; conditions: im, read-out: PD50 /treatment
Description: as §2, with “Chemother. 7:306-310, (1975)], except that:” for “Chemother.”
(§3) (a) the hog gastric mucin used in infections with Staphylococcus aureus No. 2 was purchased from American Laboratories, Inc., Omaha, Neb. (lot No. 154163) and b) that the medium used to suspend all other organisms contained 3% (rather than 4%) hog gastric mucin (type 1701W, Wilson Laboratories, Inc., Park Forest South, Ill.).
(§4) *Animals infected with penicillinase-producing staphyloccal strains (No.
(§5) and 3) were treated 0 and 2 hours after infection; the others were treate
(§6) 1 and 3.5 hours after infection.

[6] = test system: Streptococcus pneumoniae; experiment: as above; type: in vivo; conditions: im, 3.5 h, read-out: PD50 /treatment
Description: as §2, with “Chemother. 7:306-310, (1975)], except that:” for “Chemother.”
as §3, §4, §5, §6

[7] = test system: Streptococcus pyogenes; experiment: as above; type: in vivo; conditions: im, 3.5 h, read-out: PD50 /treatment
Description: as §2, with “Chemother. 7:306-310, (1975)], except that:” for “Chemother.”
as §3, §4, §5, §6

[8] = in vitro; type: in vitro ADME, human; conditions: human, serum; read-out: protein bound (converted)
[9] = test system: Serratia marcescens; experiment: Growth inhibitory activity, antibiotic dilution technique; conditions: read-out: Minimum inhibitory concentration
[10] = test system: Vibrio cholerae; experiment: as above; conditions: read-out: Minimum inhibitory concentration
[11] = test system: Pseudomonas aeruginosa; experiment: as above; conditions: read-out: Minimum inhibitory concentration
[12] = test system: Alcaligenes sp.; experiment: as above
[13] = test system: Listeria monocytogenes; experiment: as above; conditions: read-out: Minimum inhibitory concentration
[14] = test system: Providencia stuartii; experiment: as above
[15] = test system: Haemophilus influenzae; experiment: as above; conditions: including 9 ampicillin-resistant strains
[16] = test system: Enterobacter cloacae; experiment: Effect of inoculum size on susceptibility of Enterobacteriaceae
[17] = test system: Proteus mirabilis; experiment: as above
[18] = test system: Proteus vulgaris; experiment: as above
[19] = test system: Proteus rettgeri; experiment: as above; conditions: Providencia rettgeri

CC(=O)OCC1=C(C(=O)O)N2C(=O)[C@@H](NC(=O)Cc3cccs3)[C@H]2SC1 [Cephalothin]
MIC [1]: 125 µg/mL (≈ 315 µM) | MIC [2]: 0.5 µg/mL (≈ 1.26 µM) | effect of cell concentration on growth inhibitory activity [3]: slightly | MICB /MICA ([3]; Lacking penicillinase, 3 strains): 1.0 | MICB /MICA ([3]; Penicillinase producer, 26 strains): 2.2 | ED50 [4]: > 400 mg/kg | ED50 ([5]; 3.5 h, Staphylococcus aureus strain 1, challenge 2 × 10^5 - 3 × 10^5, treated 1 and 3.5 hours after infection): 0.3 mg/kg | ED50 ([5]; Staphylococcus aureus strain 2 (penicillinase-producing), challenge 1 × 10^9, treated 0 and 2 hours after infection): 9.3 mg/kg | ED50 ([5]; Staphylococcus aureus strain 3 (penicillinase-producing), challenge 5 × 10^8 - 7 × 10^9, treated 0 and 2 hours after infection): 32 mg/kg | ED50 ([6]; Streptococcus pneumoniae strain 1, challenge 2 × 10^3 - 9 × 10^3, treated 1 and 3.5 hours after infection): 4 mg/kg | ED50 ([6]; Streptococcus pneumoniae strain 2, challenge 1 × 10^4 - 3 × 10^4, treated 1 and 3.5 hours after infection): 19 mg/kg | ED50 ([7]; Streptococcus pyogenes strain 1, challenge 2 × 10^3 -6 × 10^3, treated 1 and 3.5 hours after infection): 4.5 mg/kg | ED50 ([7]; Streptococcus pyogenes strain 2, challenge 1 × 10^4 - 5 × 10^4, treated 1 and 3.5 hours after infection): 2.7 mg/kg | fraction unbound [8]: 0.33 | MIC [9]: > 125 µg/mL | MIC [10]: 1 µg/mL (≈ 2.52 µM) | MIC [11]: > 125 µg/mL | MIC ([12]; read-out: Minimum inhibitory concentration, Alcaligenes sp., 2 strains, geometric mean when applicable): > 125 µg/mL | MIC ([12]; read-out: Minimum inhibitory concentration, Alcaligenes sp., 4 strains, geometric mean when applicable): > 105 µg/mL | MIC ([12]; read-out: Minimum inhibitory concentration, Alcaligenes sp., 5 strains, geometric mean when applicable): 1.3 µg/mL (≈ 3.28 µM) | MIC [13]: 2 µg/mL (≈ 5.04 µM) | percent of strains inhibited [14]: negligible | relative activity against Haemophilus influenzae [15]: more than twice as active | MIC ([16]; read-out: Minimum Inhibitory Concentration, Enterobacter cloacae strain 1, A, Inoculum of 10^2 organisms): 8 µg/mL (≈ 20.2 µM) | MIC ([16]; read-out: Minimum Inhibitory Concentration, Enterobacter cloacae strain 1, B, Inoculum of 10^6 organisms): > 250 µg/mL | MIC ([16]; read-out: Minimum Inhibitory Concentration, Enterobacter cloacae strain 2, A, Inoculum of 10^2 organisms): 16 µg/mL (≈ 40.4 µM) | MIC ([16]; read-out: Minimum Inhibitory Concentration, Enterobacter cloacae strain 2, B, Inoculum of 10^6 organisms): > 250 µg/mL | MIC ([16]; read-out: Minimum Inhibitory Concentration, Enterobacter cloacae strain 3, A, Inoculum of 10^2 organisms): 16 µg/mL (≈ 40.4 µM) | MIC ([16]; read-out: Minimum Inhibitory Concentration, Enterobacter cloacae strain 3, B, Inoculum of 10^6 organisms): 250 µg/mL (≈ 631 µM) | MIC ([16]; read-out: Minimum Inhibitory Concentration, Enterobacter cloacae strain 4, A, Inoculum of 10^2 organisms): 32 µg/mL (≈ 80.7 µM) | MIC ([16]; read-out: Minimum Inhibitory Concentration, Enterobacter cloacae strain 4, B, Inoculum of 10^6 organisms): > 250 µg/mL | MIC ([16]; read-out: Minimum Inhibitory Concentration, Enterobacter cloacae strain 5, A, Inoculum of 10^2 organisms): 16 µg/mL (≈ 40.4 µM) | MIC ([16]; read-out: Minimum Inhibitory Concentration, Enterobacter cloacae strain 5, B, Inoculum of 10^6 organisms): 250 µg/mL (≈ 631 µM) | MIC ([17]; read-out: Minimum Inhibitory Concentration, Proteus mirabilis strain 1, A, Inoculum of 10^2 organisms): 8 µg/mL (≈ 20.2 µM) | MIC ([17]; read-out: Minimum Inhibitory Concentration, Proteus mirabilis strain 1, B, Inoculum of 10^6 organisms): 16 µg/mL (≈ 40.4 µM) | MIC ([17]; read-out: Minimum Inhibitory Concentration, Proteus mirabilis strain 2, A, Inoculum of 10^2 organisms): 4 µg/mL (≈ 10.1 µM) | MIC ([17]; read-out: Minimum Inhibitory Concentration, Proteus mirabilis strain 2, B, Inoculum of 10^6 organisms): 32 µg/mL (≈ 80.7 µM) | MIC ([17]; read-out: Minimum Inhibitory Concentration, Proteus mirabilis strain 3, A, Inoculum of 10^2 organisms): 16 µg/mL (≈ 40.4 µM) | MIC ([17]; read-out: Minimum Inhibitory Concentration, Proteus mirabilis strain 3, B, Inoculum of 10^6 organisms): 32 µg/mL (≈ 80.7 µM) | MIC ([17]; read-out: Minimum Inhibitory Concentration, Proteus mirabilis strain 4, A, Inoculum of 10^2 organisms): 8 µg/mL (≈ 20.2 µM) | MIC ([17]; read-out: Minimum Inhibitory Concentration, Proteus mirabilis strain 4, B, Inoculum of 10^6 organisms): 32 µg/mL (≈ 80.7 µM) | MIC ([17]; read-out: Minimum Inhibitory Concentration, Proteus mirabilis strain 5, A, Inoculum of 10^2 organisms): 8 µg/mL (≈ 20.2 µM) | MIC ([17]; read-out: Minimum Inhibitory Concentration, Proteus mirabilis strain 5, B, Inoculum of 10^6 organisms): 32 µg/mL (≈ 80.7 µM) | MIC ([18]; read-out: Minimum Inhibitory Concentration, Proteus vulgaris strain 1, A, Inoculum of 10^2 organisms): 1 µg/mL (≈ 2.52 µM) | MIC ([18]; read-out: Minimum Inhibitory Concentration, Proteus vulgaris strain 1, B, Inoculum of 10^6 organisms): 4 µg/mL (≈ 10.1 µM) | MIC ([18]; read-out: Minimum Inhibitory Concentration, Proteus vulgaris strain 2, A, Inoculum of 10^2 organisms): 8 µg/mL (≈ 20.2 µM) | MIC ([18]; read-out: Minimum Inhibitory Concentration, Proteus vulgaris strain 2, B, Inoculum of 10^6 organisms): 125 µg/mL (≈ 315 µM) | MIC ([18]; read-out: Minimum Inhibitory Concentration, Proteus vulgaris strain 4, A, Inoculum of 10^2 organisms): 16 µg/mL (≈ 40.4 µM) | MIC ([18]; read-out: Minimum Inhibitory Concentration, Proteus vulgaris strain 4, B, Inoculum of 10^6 organisms): 16 µg/mL (≈ 40.4 µM) | MIC ([19]; read-out: Minimum Inhibitory Concentration, Proteus rettgeri strain 1, A, Inoculum of 10^2 organisms): 0.25 µg/mL (≈ 0.631 µM) | MIC ([19]; read-out: Minimum Inhibitory Concentration, Proteus rettgeri strain 1, B, Inoculum of 10^6 organisms): 250 µg/mL (≈ 631 µM) | MIC ([19]; read-out: Minimum Inhibitory Concentration, Proteus rettgeri strain 2, A, Inoculum of 10^2 organisms): 0.25 µg/mL (≈ 0.631 µM) | MIC ([19]; read-out: Minimum Inhibitory Concentration, Proteus rettgeri strain 2, B, Inoculum of 10^6 organisms): > 250 µg/mL | MIC ([19]; read-out: Minimum Inhibitory Concentration, Proteus rettgeri strain 3, A, Inoculum of 10^2 organisms): 32 µg/mL (≈ 80.7 µM) | MIC ([19]; read-out: Minimum Inhibitory Concentration, Proteus rettgeri strain 3, B, Inoculum of 10^6 organisms): > 250 µg/mL
